In patent US7534871B2, “Preparation and use of carbohydrate-based bicyclic ring structures with antimicrobial and cytostatic activity” (Kemin Pharma B.V.B.A., priority 2004, dated 2009):
Converted amounts (≈) assume the structure as drawn. Read-outs that look alike come from different tables or passages of the source.

Key:
[1] = tested on: P. aeruginosa ATCC27853 LMG16217; experiment: Anti-bacterial activity, Bioscreen C growth curve: P. aeruginosa; format: cell-based, Pseudomonas aeruginosa; conditions: for activity at 25 ppm: Pseudomonas aeruginosa, 35° C., 16 hours, negative control = 100, read-out: % of growth at 25 PPM compared to the negative control, P. aeruginosa ATCC27853 LMG16217
Method: (§1) For the determination of the anti-bacterial and anti-fungal activity the Bioscreen C Analyser Labsystems, Finland, was used. This is an automated reader-incubator. It measures growth continuously by vertical photometry (optical density), processes the data and provides a print out of the results. The area under the growth curve is automatically determined via the Biolink software.
(§2) The inoculum size of the bacteria is standardized to approximately 5×10^5 CFU/ml.
(§3) For bacteria, the 100-honey-well plates containing test chemical, Mueller-Hinton broth and inoculum (=sample) are incubated at 35° C. for 16 hours. Also wells without inoculum are incubated (=blanco). Yeasts are incubated 35° C. for 24 hours in RPMI 1640+MOPS buffer at 165 mM. Moulds also in RPMI 1640+MOPS buffer at 165 mM are incubated 25° C. for 5 days. All micro-organisms are screened against a known concentration of the reference antibiotics or antimycotics such as vancomycin, penicillin G, gentamicin or amphotericin B. The growth curve and the area under the growth curve can be determined using the Biolink software; this is illustrated in FIG. 1.
(§4) The area of the blanco is subtracted from the area of the sample, this number (delta) gives us an indication of the biological activity of the molecules tested and can be expressed as a % of growth at a specific dose compared to a negative control that has a value of 100, illustrated in FIG. 2. Screening of each dose of a specific compound is repeated 5 times. The dose used for all new molecules in all tests is 25 PPM or 25 μg/ml.
(§5) In Table 4 the results of the anti-bacterial activity is given for the new molecules. The micro-organisms used are Staphylococcus aureus, MRSA, VRE, Enterococcus faecalis, Salmonella typhimurium and Pseudomonas aeruginosa.

[2] = tested on: Microsporum gypseum IHEM 3999 - ATCC 14683; experiment: Anti-fungal activity, Bioscreen C growth curve: Microsporum gypseum (mold); format: cell-based; conditions: Nannizzia gypsea, ATCC14683, 120 h; 25 PPM; 25° C., 5 days; negative control = 100; read-out: % of growth at a dose of 25 PPM compared to the negative control, Microsporum gypseum IHEM 3999 - ATCC 14683
Method: as §1
The inoculum size of the mould is standardized to 0.4-5.0×10^4 CFU/ml.
as §3, §4
In Table 5 the anti-fungal activity is given for the new molecules. The micro-organisms used were Candida albicans (a typical yeast) and Microsporum gypseum (a typical mold).
as §1, with “Also for” for “For”, “the” for “the anti-bacterial and”, “Labsystems Oy, Finland” for “Labsystems, Finland,”, “used.” for “used. This is an automated reader-incubator.”
The inoculum size of the yeast is standardized to 0.5-2.5×10^3 CFU/ml. The inoculum size of the mould is standardized to 0.4-5.0×10^4 CFU/ml. Yeasts are incubated 35° C. for 24 hours in RPMI 1640+MOPS buffer at 165 mM. Moulds also in RPMI 1640+MOPS buffer at 165 mM are incubated 25° C. for 5 days.
As a control, all micro-organisms are screened against some reference antibiotics with known MIC. Screening of each dose of a specific compound is repeated 5 times.

VRE ATCC700221 = experiment: Anti-bacterial activity, Bioscreen C growth curve: VRE; format: cell-based, vancomycin-resistant Enterococcus (VRE); conditions: Enterococcus, 35° C., 16 hours, negative control = 100, read-out: % of growth at 25 PPM compared to the negative control, VRE ATCC700221
Method: as §1, §2, §3, §4, §5

HIV-2 (ROD) = experiment: Anti-viral activity: HIV-2-induced cytopathicity in human CEM cell cultures; format: cell-based; conditions: Human immunodeficiency virus 2, CCRF-CEM; concentration required to inhibit HIV-induced cytopathicity in human CEM cell cultures by 50%
HIV-1 (IIIB) = experiment: microbe, parasite or virus in culture; format: cell-based; conditions: Human immunodeficiency virus 1, IIIB, CCRF-CEM; concentration required to inhibit HIV-induced cytopathicity in human CEM cell cultures by 50%
MRSA ATCC33591 = experiment: Anti-bacterial activity, Bioscreen C growth curve: MRSA; format: cell-based, methicillin-resistant Staphylococcus aureus (MRSA); conditions: Staphylococcus aureus, ATCC 33591 / LMG10147 / MRSA; 25 PPM; 35° C., 16 hours; negative control = 100; read-out: % of growth at 25 PPM compared to the negative control, MRSA ATCC33591 LMG10147
Method: as §1, §2, §3, §4, §5

[3] = tested on: S. aureus ATTC29213 LMG10147; experiment: Anti-bacterial activity, Bioscreen C growth curve: S. aureus; format: cell-based; conditions: Staphylococcus aureus, 35° C., 16 hours, negative control = 100, read-out: % of growth at 25 PPM compared to the negative control, S. aureus ATTC29213 LMG10147
Method: as §1, §2, §3, §4, §5

HSV-2 (G) = experiment: Anti-viral activity: HSV-2-induced cytopathicity in human embryo fibroblast E6SM cell cultures; format: cell-based, herpes simplex virus (HSV); conditions: Human alphaherpesvirus 2, 50%
[4] = tested on: S. typhimurium ATTC700408; experiment: Anti-bacterial activity, Bioscreen C growth curve: S. typhimurium; format: cell-based; conditions: Salmonella enterica, LMG16217 / TYPHIMURIUM, 35° C., 16 hours, negative control = 100, read-out: % of growth at 25 PPM compared to the negative control, S. typhimurium ATTC700408 LMG16217
Method: as §1, §2, §3, §4, §5

VV = experiment: microbe, parasite or virus in culture; format: cell-based; conditions: Orthopoxvirus vaccinia, E6SM, read-out: EC50 VV (E6SM)
HSV-1 (KOS) = experiment: Anti-viral activity: HSV-1-induced cytopathicity in human embryo fibroblast E6SM cell cultures; format: cell-based, herpes simplex virus (HSV); conditions: Human alphaherpesvirus 1, 50%
[5] = tested on: murine leukemia cells (L1210/0); experiment: Cytostatic activity: inhibition of proliferation of L1210/0 cells; format: cell-based; conditions: Mus musculus
Method: (§6) The compounds were tested for anti-tumor activity via the inhibitory effects on the proliferation of murine leukemia cells (L1210/0), murine mammary carcinoma cells (FM3A), human T-lymphocyte cells (Molt4/C8, CEM/0) and human cervix carcinoma cells (HeLa).

[6] = tested on: murine mammary carcinoma cells (FM3A); experiment: Cytostatic activity: inhibition of proliferation of FM3A cells; format: cell-based; conditions: Mus musculus, read-out: IC50 FM3A/0
Method: as §6

VZV YS = experiment: Anti-viral activity: VZV-induced plaque formation in HEL cell cultures, YS strain; format: cell-based, varicella zoster virus (VZV); conditions: Human alphaherpesvirus 3, VZV-induced plaque formation in human embryonic lung HEL cell cultures, 50%
[7] = tested on: human T-lymphocyte cells (CEM/0); experiment: Cytostatic activity: inhibition of proliferation of CEM/0 cells; format: cell-based; conditions: CCRF-CEM, read-out: IC50 CEM/0
Method: as §6

[8] = L1210/0, 50% inhibitory concentration, cell proliferation, read-out: IC50 L1210/0
[9] = 50% inhibitory concentration, cell proliferation

CO[C@@H]1[C@@H](OC)[C@H](Sc2ccccc2)O[C@@H]2COC(=O)CCCC/C=C/CCCCC(=O)O[C@@H]12 [KPE00001016.1]
activity at 25 ppm [1]: 29% | anti-bacterial activity against P. aeruginosa, in words ([1]; conclusion on Table 4): good anti-bacterial activity | activity at 25 ppm [2]: 74% | activity at 25 ppm (VRE ATCC700221): 61.8% | EC50 (HIV-2 (ROD)): > 4 µg/mL | EC50 (HIV-1 (IIIB)): > 4 µg/mL | activity at 25 ppm (MRSA ATCC33591): 115% | activity at 25 ppm [3]: 103% | EC50 (HSV-2 (G)): > 3.2 µg/mL | activity at 25 ppm [4]: 76.4% | EC50 (VV): > 3.2 µg/mL | EC50 (HSV-1 (KOS)): > 3.2 µg/mL | IC50 [5, 8]: 20 ± 7 µg/mL (≈ 40.6 µM) | IC50 [6, 9]: 108 ± 9 µg/mL (≈ 219 µM) | EC50 (VZV YS): 22 µg/mL (≈ 44.7 µM) | IC50 [7, 9]: 23 ± 0.5 µg/mL (≈ 46.7 µM)

CO[C@@H]1[C@@H](OC)[C@H](Sc2ccccc2)O[C@@H]2COC(=O)CCCC/C=C\CCCCC(=O)O[C@@H]12 [KPE00001016.2]
activity at 25 ppm [1]: 79.8% | activity at 25 ppm [2]: 58% | activity at 25 ppm (VRE ATCC700221): 81% | EC50 (HIV-2 (ROD)): > 100 µg/mL | EC50 (HIV-1 (IIIB)): > 100 µg/mL | activity at 25 ppm (MRSA ATCC33591): 104% | activity at 25 ppm [3]: 97% | EC50 (HSV-2 (G)): > 3.2 µg/mL | activity at 25 ppm [4]: 87% | EC50 (VV): > 3.2 µg/mL | EC50 (HSV-1 (KOS)): > 3.2 µg/mL | IC50 [5, 8]: 158 ± 10 µg/mL (≈ 321 µM) | IC50 [6, 9]: > 200 µg/mL | EC50 (VZV YS): > 50 µg/mL | IC50 [7, 9]: 36 ± 16 µg/mL (≈ 73.1 µM)

CO[C@@H]1[C@@H](OC)[C@H](c2ccccc2)O[C@@H]2CO[C@@H](c3ccccc3)O[C@@H]12 [KPE00001015]
activity at 25 ppm [1]: 90.4% | activity at 25 ppm [2]: 66% | activity at 25 ppm (VRE ATCC700221): 67.8% | EC50 (HIV-2 (ROD)): > 4 µg/mL | EC50 (HIV-1 (IIIB)): > 4 µg/mL | activity at 25 ppm (MRSA ATCC33591): 117% | activity at 25 ppm [3]: 104% | EC50 (HSV-2 (G)): > 80 µg/mL | activity at 25 ppm [4]: 87.2% | EC50 (VV): > 80 µg/mL | EC50 (HSV-1 (KOS)): > 80 µg/mL | IC50 [5, 8]: ≥ 200 µg/mL | IC50 [6, 9]: > 200 µg/mL | EC50 (VZV YS): 14 µg/mL (≈ 39.3 µM) | IC50 [7, 9]: 81 ± 10 µg/mL (≈ 227 µM)

CO[C@@H]1[C@@H](OC)[C@H](Cc2ccccc2)O[C@@H]2COC(=O)CC/C=C/CCC(=O)O[C@@H]12 [KPE00001022]
activity at 25 ppm [1]: 90.9% | activity at 25 ppm [2]: 67% | activity at 25 ppm (VRE ATCC700221): 87% | EC50 (HIV-2 (ROD)): > 20 µg/mL | EC50 (HIV-1 (IIIB)): > 20 µg/mL | activity at 25 ppm (MRSA ATCC33591): 110% | activity at 25 ppm [3]: 102% | EC50 (HSV-2 (G)): 80 µg/mL (≈ 191 µM) | activity at 25 ppm [4]: 94% | EC50 (VV): 80 µg/mL (≈ 191 µM) | EC50 (HSV-1 (KOS)): > 80 µg/mL | IC50 ([5]; L1210/0, read-out: IC50 L1210/0): 80 µg/mL (≈ 191 µM) | IC50 [6]: 82 ± 14 µg/mL (≈ 196 µM) | EC50 (VZV YS): > 20 µg/mL | IC50 [7]: 48 ± 15 µg/mL (≈ 115 µM)

CO[C@@H]1[C@@H](OC)[C@H](Cc2ccccc2)O[C@@H]2CO[C@@H](c3ccccc3)O[C@@H]12 [KPE00001019]
activity at 25 ppm [1]: 105% | activity at 25 ppm [2]: 66% | activity at 25 ppm (VRE ATCC700221): 97% | EC50 (HIV-2 (ROD)): > 100 µg/mL | EC50 (HIV-1 (IIIB)): > 100 µg/mL | activity at 25 ppm (MRSA ATCC33591): 104% | activity at 25 ppm [3]: 109% | EC50 (HSV-2 (G)): > 80 µg/mL | activity at 25 ppm [4]: 94.3% | EC50 (VV): > 80 µg/mL | EC50 (HSV-1 (KOS)): > 80 µg/mL | IC50 [5, 8]: > 200 µg/mL | IC50 [6, 9]: > 200 µg/mL | EC50 (VZV YS): > 5 µg/mL | IC50 [7, 9]: ≥ 200 µg/mL

CO[C@@H]1[C@@H](OC)[C@H](Cc2ccccc2)O[C@@H]2COC(=O)CCCCCCCCC=CCCCCCCCCC(=O)O[C@@H]12 [KPE00001031E]
activity at 25 ppm [1]: 89.6% | activity at 25 ppm [2]: 62% | activity at 25 ppm (VRE ATCC700221): 85.4% | EC50 (HIV-2 (ROD)): > 20 µg/mL | EC50 (HIV-1 (IIIB)): > 100 µg/mL | activity at 25 ppm (MRSA ATCC33591): 104% | activity at 25 ppm [3]: 100% | EC50 (HSV-2 (G)): > 400 µg/mL | activity at 25 ppm [4]: 91.7% | EC50 (VV): > 400 µg/mL | EC50 (HSV-1 (KOS)): ≥ 400 µg/mL | IC50 [5, 8]: > 200 µg/mL | IC50 [6, 9]: ≥ 200 µg/mL | EC50 (VZV YS): 15 µg/mL (≈ 25.6 µM) | IC50 [7, 9]: ≥ 200 µg/mL
